Entries after “also recorded” stand apart in the source; their conditions may differ.

This test relates to cardiac hypertrophy induced by TAC in C57/BL/6 mice. The experiment in a line: TAC 21 days: cardiac mass, geometry, wall thickness, myocyte size (Example 4). In kind it is in vivo. The settings on record: 21 days after TAC. As to the method:
The effects of 8MI on hypertrophy in a model of moderate pressure overload were tested further (FIGS. 5A-5E). 8MI or its vehicle (DMSO) was administered over a range of concentrations immediately prior to and for 21 days following transverse aortic coarctation (TAC). All experiments were performed on 2-3 month old wild type C57/BL/6 mice. Cardiac hypertrophy was induced by TAC as described in Wei et. al. 2008. Pressure gradients induced by TAC were evaluated postoperatively by pulsed-wave Doppler echocardiography to confirm equivalent gradients in all animals (45±5 mmHg). 8MI was delivered via tail vein injection one day prior to surgical intervention and then daily for 21 days. Blood samples were obtained at sacrifice on day 21 after surgery, and serum was frozen at […] until analysis
Masson's Trichrome was used to visualize cardiac four-chamber anatomy. Paraffin embedded sections were used for staining (FIG. 5B). Representative wheat germ agglutinin (WGA)-stained sections of myocardium from the mice were prepared. For echocardiography (FIG. 5C), mice were placed under anesthesia with 40 mg/kg ketamine and 5 mg/kg xylocaine and secured in a supine position. Mice were evaluated using […] transducer on a Visual Sonics 770 High Resolution Imaging System. B-mode in the short and long axis view of the ventricle was used to evaluate wall motion defects of ventricle and M-mode in long axis view used for the interventricular septal thickness, posterior wall thickness and the left ventricular dimensions in systole and diastole.
Hematoxylin and Eosin (HE) and FITC conjugated WGA (from Invitrogen) were used to evaluate myocardial cell size (FIGS. 5D and 5E). The sizes of cells from at least 4 myocardial sections from 3 mice per condition were measured (FIG. 5E). WGA samples were counterstained with DAPI and images were merged from the DAPI and FITC channels.

As for `Nc1ccccc1NC(=O)CCCCCC(=O)Nc1cccc(Br)c1` [8MI], the “effect on heart weight in comparison to previously published results for TSA” value is “significantly superior effect” and the “reduction of myocyte cross sectional area in comparison to previously published results for TSA” value is “significantly superior effect”. For the same compound, the “HW/TL at the highest dose” value (40 mg/kg) is listed as “normal levels”. Moreover, for the setting “WGA-stained sections”, the “TAC-induced increase of myocyte cross-sectional area / myocyte size” value is listed as “effectively eliminated this 2.2-fold increase; also recorded: normalization of myocyte size”. Also, the “remodeling of the myocardium (four-chamber sections)” value (dose-dependent) is given as “prevented remodeling of the myocardium; also recorded: normalization of cardiac geometry”. For the same compound, for the setting “highest dose of 8MI (vehicle 35.9%±1.0%)”, the “increase of echocardiographic wall thickness” value was 6.9%±1.4%. The “echocardiographic posterior wall thickness” value (indicated doses) was “normalization of echocardiographic posterior wall thickness”. Moreover, the “TAC-induced increase of heart weight (HW/TL)” value (indicated doses up to 40 mg/kg, tail vein daily) was “blunted the increase of heart weight in a dose-dependent manner; also recorded: normalization of cardiac mass”.

Source of the values: patent US20180028477A1, “TREATMENT OF CARDIAC REMODELING AND OTHER HEART CONDITIONS” (C & C BIOPHARMA, LLC, priority 2013, published 2018).
